Source: US10308655B2, “Method of treating Crohn's disease comprising a TLR2 antagonist” (AJOU UNIVERSITY INDUSTRY-ACADEMIC COOPERATION FOUNDATION, priority 2015, dated 2019)

Target: T1, TLR2 (Homo sapiens, UniProt O60603)
T1 construct: host or cells: HEK293-TLR2
Experiment: Pam3CSK4-induced IL-8 secretion in HEK293-TLR2 cells (IL-8 ELISA)
Type: cell-based
Conditions: compound 1 hour then co-treated with 50 nM Pam3CSK4, FIG. 15
Description: HEK293-TLR2 (expressed at endogenous levels of TLR1) and HEK293-Null cell lines were cultured in 96-well tissue culture plates (BD Biosciences) at a density of 1×10^4 cells/wells, 37° C., 95% air and 5% CO2 for 24 hours. In order to determine the agonist activity, a cell stimulation was achieved by treatment with 50 μM of compound and 50 nM of Pam3CSK4 (Invivogen, San Diego, Calif., USA). In order to determine the antagonist activity, cells were treated with various concentrations of compound for 1 hour and then co-treated with 50 nM of Pam3CSK4. The next day, IL-8 secretion was quantified by human IL-8 ELISA Ready-SET-Go! ® (Second generation) kit (eBioscience, San Diego, Calif., USA) according to the method of the manufacturer's guide, and the quantified results are illustrated in FIG. 15.
For the dose-dependent analysis of the top three compounds (S06690562, S01688300, S01382085) among the six compounds, the concentrations of the three compounds were varied to 12.5, 25, and 50 μM, and the secretion amount of IL-8 was analyzed as the above method. The results are illustrated in FIG. 16.

T1 sequence (O60603 21-784): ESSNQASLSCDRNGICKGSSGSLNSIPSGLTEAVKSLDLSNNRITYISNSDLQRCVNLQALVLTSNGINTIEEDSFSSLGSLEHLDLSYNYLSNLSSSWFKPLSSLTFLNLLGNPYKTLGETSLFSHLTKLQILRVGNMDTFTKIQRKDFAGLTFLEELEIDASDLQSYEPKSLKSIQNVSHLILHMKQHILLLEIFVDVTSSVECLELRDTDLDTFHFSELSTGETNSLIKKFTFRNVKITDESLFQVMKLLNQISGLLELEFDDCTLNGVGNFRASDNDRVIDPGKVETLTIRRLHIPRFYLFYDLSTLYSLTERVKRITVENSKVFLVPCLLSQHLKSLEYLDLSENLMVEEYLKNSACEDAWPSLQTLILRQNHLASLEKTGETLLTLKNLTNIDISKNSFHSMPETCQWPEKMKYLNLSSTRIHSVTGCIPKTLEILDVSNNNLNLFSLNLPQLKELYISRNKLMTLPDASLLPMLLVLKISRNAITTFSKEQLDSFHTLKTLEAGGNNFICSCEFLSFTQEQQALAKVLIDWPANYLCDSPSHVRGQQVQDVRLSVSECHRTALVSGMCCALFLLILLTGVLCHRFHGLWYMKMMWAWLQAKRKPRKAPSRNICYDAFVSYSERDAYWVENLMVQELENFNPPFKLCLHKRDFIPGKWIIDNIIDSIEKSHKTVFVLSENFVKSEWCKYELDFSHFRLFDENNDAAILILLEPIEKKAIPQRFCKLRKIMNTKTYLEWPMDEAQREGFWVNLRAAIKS

Pam3CSK4-induced IL-8 secretion amount | SMILES
greatly reduced | CCN(Cc1ccncc1)Cc1cccc(OCC(O)CN2CCC(O)CC2)c1 (centres unmarked) [Compound S01688300]
greatly reduced | CC1CCCN(C(C)CNC(=O)CCNC(=O)C2CC2C)C1 (centres unmarked) [Compound S02276077]
greatly reduced | COC(=O)c1c(NC(=O)NCCN2CCOCC2)sc2c1CCC2 [Compound S01382085]
greatly reduced | Cc1cc(C)c(NC(=O)CNC(=O)CN(C)CC(=O)NCC(F)(F)F)c(C)c1 [Compound S06690562]

SMILES | Pam3CSK4-induced IL-8 secretion amount
CC(C)Oc1cccc(CC(=O)N2CCCN(CC(N)=O)CC2)c1 [Compound S06696686] | greatly reduced
